Reference: patent US20070048370A1, “Pharmaceutical formulation for salts of monobasic acids with clopidogrel” (priority 2005, published 2007)
Where two headings read alike, the source gives them in different places.

Description: The stability of clopidogrel besylate in the presence of various tabletting excipients was investigated. For this purpose, clopidogrel besylate was thoroughly triturated with the excipient in the ratio 1:1 and stored for two weeks at 40° C. and 75% relative humidity. The content of clopidogrel besylate in the sample was then determined.

5-methyl-a-(4,5,6,7-tetrahydro[2,3-c]thienopyridyl)(2-chlorophenyl)acetate [Clopidogrel besylate]
Clopidogrel besylate Residual content (%) (1:1 with AcDiSol, two weeks at 40° C. and 75% relative humidity): 94.00%
Clopidogrel besylate Residual content (%) (1:1 with Lactose, two weeks at 40° C. and 75% relative humidity): 99.86%
Clopidogrel besylate Residual content (%) (1:1 with Macrogol 6000, two weeks at 40° C. and 75% relative humidity): 90.07%
Clopidogrel besylate Residual content (%) (1:1 with Mannitol, two weeks at 40° C. and 75% relative humidity): 99.85%
Clopidogrel besylate Residual content (%) (1:1 with Mg-stearate, two weeks at 40° C. and 75% relative humidity): 51.99%
Clopidogrel besylate Residual content (%) (1:1 with Microcrystalline cellulose, two weeks at 40° C. and 75% relative humidity): 99.24%
Clopidogrel besylate Residual content (%) (1:1 with Silica, two weeks at 40° C. and 75% relative humidity): 99.44%
Clopidogrel besylate Residual content (%) (1:1 with Stearic acid, two weeks at 40° C. and 75% relative humidity): 99.50%
Clopidogrel besylate Residual content (%) (no excipient, stored two weeks at 40° C. and 75% relative humidity, content vs beginning of storage): 99.76%
Compatibility with excipient (decomposition of the active substance) (with Macrogol 6000): incompatible
Compatibility with excipient (decomposition of the active substance) (with Magnesium stearate): incompatible
Compatibility with excipient (decomposition of the active substance) (with croscarmellose sodium (AcDiSol)): incompatible
Compatibility with excipient (decomposition of the active substance) (with sodium lauryl sulfate): incompatible
